# Assay results from patent US20230023770A1, “Preparation of Drug for Treating Alzheimer's Disease (AD)” (Plantarx Limited, priority 2019, published 2023).
# Entries after “also recorded” stand apart in the source; their conditions may differ.
# Tests used:
# [1] = test system: glial fibrillary acidic protein (GFAP); experiment: IHC staining of GFAP (astrocyte activation) in hippocampus; format: in vivo, ICR mice; settings: acyclovir 500 mg/kg, DXMT 2 mg/kg, donepezil 2.5 mg/kg
# Method: (§1) The acyclovir, DXMT and donepezil were dissolved in water.
# (§2) Mice recover for 3 d without any experiments.
# (§3) One day after the Morris water maze test, mice are deeply anesthetized and transcardially perfused with an ice-cold saline. The brain is quickly dissected. Hippocampal proteins are extracted and stored at −80° C. prior to use in a Western blotting assay (4 mice per group) and an enzyme-linked immunosorbent assay (ELISA, 3 mice per group). Intact brain tissues (3 mice per group) are stored in a formalin solution at […] prior to staining using immunohistochemistry (IHC).
# (§4) IHC staining is conducted according to previously reported protocols^11. Briefly, after the Morris water maze test, the brains are dissected and incubated with 4% paraformaldehyde for 1 d. Brain specimens are dehydrated, paraffin-embedded, and sliced into 4-micron slices. Hippocampal sections are dewaxed and rehydrated. Treatment with 3% H2O2 is conducted for 10 min to inhibit a cellular peroxidase activity. Sections are incubated overnight at 4° C. with primary antibodies to a CD45 antigen and a glial fibrillary acidic protein (GFAP). […] The sections are labeled with DAB and analyzed colorimetrically. A mean OD of the area is analyzed using Image Pro 6.0 (Media Cybernetics Inc., MD, USA). […] Positive area and OD are determined by measurements on randomly selected microscope fields on each slide. […]
# [2] = test system: IL-17; experiment: Western blotting of IL-17 in mouse hippocampus; format: in vivo, ICR mice; settings: acyclovir 500 mg/kg, DXMT 2 mg/kg, donepezil 2.5 mg/kg
# Method: as §1, §2, §3
# (§5) The Western blotting assay is conducted as previously described^11. Briefly, the brain tissues from hippocampus are extracted in a lysis buffer for 1 min and centrifuged at 16,000 g for 10 min. Protein levels in a supernatant are estimated by a Bradford analysis, the proteins are separated on an SDS-polyacrylamide gel, and electrotransferred to a polyvinylidene fluoride membrane. After 2 h of incubation with 5% skim milk in TBST, incubation is conducted for 12 h with corresponding antibodies Tau, IL-17 (Santa Cruz Biotechnology, Shanghai, China), pSer396-Tau, PSD-95, and β-actin (Cell Signaling Technology, Inc., Beverly, Mass., USA). […] The data is expressed as a ratio of an optical density (OD) compared to the control and a statistical analysis.
# [3] = test system: interleukin-6 (IL-6); experiment: ELISA of IL-6 in mouse hippocampus; format: in vivo, ICR mice; settings: acyclovir 500 mg/kg, DXMT 2 mg/kg, donepezil 2.5 mg/kg
# Method: as §1, §2, §3
# Determination was conducted on concentrations of interleukin-6 (IL-6) and tumor necrosis factor-α (TNF-α) in mouse hippocampus using freshly prepared brain tissues. Brain samples are homogenized in a 0.1M phosphate buffered saline. A resulting brain extract is centrifuged to 2,000 g at 4° C. for 15 min. Concentrations of IL-6 and TNF-α are determined with an ELISA kit (Excell Bio, Shanghai, China) according to the manufacturer's protocol. An absorbance is read.
# [4] = test system: Aβ oligomer-treated mice; experiment: Morris water maze test (spatial cognition); format: in vivo, ICR mice; settings: acyclovir 500 mg/kg, DXMT 2 mg/kg, donepezil 2.5 mg/kg; for time in the target area compared with the Aβ group: probe trial, platform removed, 90 sec
# Method: as §1, §2
# The spatial memory is assessed with the Morris water maze test^10. The Morris water maze is a circular pool (110 cm in diameter) filled with water at a temperature of 23±2° C., and has a platform. Except on a last day, the platform is always placed in a center of a northwest quadrant. Swimming tracks are recorded by a video recorder connected to a computer. Each mouse is trained on positioning the platform over a four-day trial, and learning is assessed daily for four consecutive days. The time mice take to enter a hidden platform is measured. On the last day, the platform is removed and the mice are trained to swim for 90 sec for a probe trial. The swimming times are recorded in the four quadrants of the pool. A tendency to appear in the quadrant occupied before the platform indicates a spatial memory ability.
# [5] = Body weight of Aβ oligomer-treated mice during treatment; format: in vivo, ICR mice; settings: last day of experiment, gavage 13 d twice a day, acyclovir 500 mg/kg, DXMT 2 mg/kg, donepezil 2.5 mg/kg
# Method: as §1, §2
# Briefly, on day 1, the Aβ oligomers are injected into both sides of the mouse hippocampus. The mice are let recover for 3 d. On days 4 to 16, mice are treated differently for 13 d. On day 17, a motor function of the mice is examined by the open field test. On days 18-24, the spatial cognition is tested by the Morris water maze test. On day 25, the mice are sacrificed for biochemical studies.
# Digestive disturbance is one of the common adverse effects of acyclovir. Long-term treatment with acyclovir may cause indigestion and malnutrition, leading to weight loss. Therefore, the body weight of the mice is measured every 2 d to 3 d during the experiment.
# [6] = test system: PSD-95; experiment: Western blotting of PSD-95 in mouse hippocampus; format: in vivo, ICR mice; settings: acyclovir 500 mg/kg, DXMT 2 mg/kg, donepezil 2.5 mg/kg
# Method: as §1, §2, §3, §5
# [7] = test system: pSer396-Tau; experiment: Western blotting of pTau in mouse hippocampus; format: in vivo, ICR mice; settings: acyclovir 500 mg/kg, DXMT 2 mg/kg
# Method: as §1, §2, §3, §5
# [8] = test system: HSV-1-infected cells; settings: cited from earlier work
# [9] = test system: CD45; experiment: IHC staining of CD45 (microglia activation) in hippocampus; format: in vivo, ICR mice; settings: acyclovir 500 mg/kg, DXMT 2 mg/kg
# Method: as §1, §2, §3, §4
# [10] = test system: Aβ oligomer-treated mice; experiment: Open field experiment (motor activity); settings: day 17, 5 min, acyclovir 500 mg/kg, DXMT 2 mg/kg
# Method: Zhejiang Academy of Medical Sciences has provided ICR mice weighing about 25 g. The mice are subjected to a 12-h illumination/darkness cycle at 22±2° C. (humidity: 50±10%) and are provided with water and standard food. The acyclovir, DXMT and donepezil were dissolved in water. The mice are randomly divided into 6 groups with 10 mice in each group, including: a control group, an Aβ oligomer group, an Aβ+500 mg/kg acyclovir group, an Aβ+2 mg/kg DXMT group, an Aβ+500 mg/kg acyclovir, 2 mg/kg DXMT group, and an Aβ+2.5 mg/kg donepezil group. The mice are anesthetized by intraperitoneal injection of sodium pentobarbital (50 mg/kg) and placed in a stereotaxic apparatus (RWD Life Science Co., Ltd., Shenzhen, China).
# On day 1, the Aβ oligomer was injected into a bilateral ventricle region. A micro-dose is injected (1 μl/side) over 5 min. To reduce backflow, the cannula is left in place for 5 min. […] Mice recover for 3 d without any experiments. […]
# To analyze a motor activity and exploratory behavior, the mice are housed in an open field (50 cm×50 cm×39 cm) with white plywood walls and brown floors. […] The number of crossed lines of four paws and the number of feedings are recorded using a hand-held counter and stopwatch, which are used to mark the motor activity and exploratory behavior. […]
Compound,Aβ-induced increase in the mean OD of GFAP compared with the Aβ group [1],Aβ-induced increase in IL-17 expression compared with the Aβ group [2],Aβ-induced increase in IL-6 expression compared with the Aβ group [3],"time to find the hidden platform (latency) compared with the Aβ group ([4]; last day of training, gavage 13 d)",time in the target area compared with the Aβ group [4],body weight compared with the control group [5],expression of PSD-95 compared with the Aβ group [6],Aβ-induced increase in pTau expression compared with the Aβ group [7],inhibition of aberrant tau phosphorylation [8],reduction of HSV-1-induced Aβ accumulation [8],Aβ-induced increase in CD45 mean OD compared with the Aβ group [9],"motor function (number of standing, number of crossing lines) [10]"
COc1cc2c(cc1OC)C(=O)C(CC1CCN(Cc3ccccc3)CC1)C2 (centres unmarked) [donepezil],neither acyclovir nor donepezil treatment can change,does not alter the expression of IL-17,does not alter the expression of IL-6,significantly shorter,significantly longer,does not change the body weight,does not alter the expression of PSD-95,–,–,–,–,–
Nc1nc2c(ncn2COCCO)c(=O)[nH]1 [acyclovir],significantly reduce; also recorded: neither acyclovir nor donepezil treatment can change,cannot reduce the expression of IL-17,does not significantly reduce IL-6 production,–,do not show a better performance,–,does not alter the expression of PSD-95,significantly attenuate,~100%,70%,can inhibit the activation of microglia,do not significantly alter the motor function
